# Assays:
# Format in all cases: biochemical
# [1] = target: T1, IGFR-1 (Homo sapiens, UniProt P08069); experiment: Kinase inhibition assay, IGFR-1 (Table 2); details: Table 2, kinase inhibition class
# T1 construct: Kinases are expressed as either kinase domains or full length constructs; made in house
# [2] = target: T2, Lck (Homo sapiens, UniProt P06239); experiment: Kinase inhibition assay (33P transfer), Lck; details: for IC50: read-out: Lck-1
# T2 construct: Kinases are expressed as either kinase domains or full length constructs; made in house
# T2 sequence (P06239 whole entry, species assumed, the tested form may be a part): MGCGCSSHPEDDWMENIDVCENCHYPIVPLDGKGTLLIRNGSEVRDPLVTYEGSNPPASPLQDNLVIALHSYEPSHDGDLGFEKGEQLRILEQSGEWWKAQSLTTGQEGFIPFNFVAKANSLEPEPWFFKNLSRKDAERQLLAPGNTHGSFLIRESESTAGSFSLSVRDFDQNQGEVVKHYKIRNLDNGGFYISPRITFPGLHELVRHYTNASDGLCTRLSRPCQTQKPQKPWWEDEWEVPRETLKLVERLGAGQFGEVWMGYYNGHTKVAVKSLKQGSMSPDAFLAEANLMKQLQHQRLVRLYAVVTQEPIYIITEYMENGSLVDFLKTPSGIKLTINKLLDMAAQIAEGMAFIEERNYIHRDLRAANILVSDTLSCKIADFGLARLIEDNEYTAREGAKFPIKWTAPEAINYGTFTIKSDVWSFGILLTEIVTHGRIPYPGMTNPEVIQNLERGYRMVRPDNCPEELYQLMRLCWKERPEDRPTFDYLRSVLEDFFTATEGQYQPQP
# Procedure, shortened: (§1)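 Filterless plate radiometric format: immobilized poly(Glu,Tyr) 4:1 or poly(Arg,Ser) 3:1, 33P-labelled ATP, tagged recombinant kinase (some with regulatory partners). Incorporated label counted after phosphoric acid wash.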
# [3] = target: T3, Kdr (Homo sapiens, UniProt P35968); experiment: Kinase inhibition assay (33P transfer), Kdr; details: for IC50: read-out: KDR-1
# T3 construct: Kinases are expressed as either kinase domains or full length constructs; made in house
# Procedure, shortened: as §1
# [4] = target: T4, Zap-70 (Homo sapiens, UniProt P43403); experiment: Kinase inhibition assay (33P transfer), Zap-70; details: for IC50: read-out: Zap-1
# T4 construct: Kinases are expressed as either kinase domains or full length constructs; made in house
# T4 sequence (P43403 1-619): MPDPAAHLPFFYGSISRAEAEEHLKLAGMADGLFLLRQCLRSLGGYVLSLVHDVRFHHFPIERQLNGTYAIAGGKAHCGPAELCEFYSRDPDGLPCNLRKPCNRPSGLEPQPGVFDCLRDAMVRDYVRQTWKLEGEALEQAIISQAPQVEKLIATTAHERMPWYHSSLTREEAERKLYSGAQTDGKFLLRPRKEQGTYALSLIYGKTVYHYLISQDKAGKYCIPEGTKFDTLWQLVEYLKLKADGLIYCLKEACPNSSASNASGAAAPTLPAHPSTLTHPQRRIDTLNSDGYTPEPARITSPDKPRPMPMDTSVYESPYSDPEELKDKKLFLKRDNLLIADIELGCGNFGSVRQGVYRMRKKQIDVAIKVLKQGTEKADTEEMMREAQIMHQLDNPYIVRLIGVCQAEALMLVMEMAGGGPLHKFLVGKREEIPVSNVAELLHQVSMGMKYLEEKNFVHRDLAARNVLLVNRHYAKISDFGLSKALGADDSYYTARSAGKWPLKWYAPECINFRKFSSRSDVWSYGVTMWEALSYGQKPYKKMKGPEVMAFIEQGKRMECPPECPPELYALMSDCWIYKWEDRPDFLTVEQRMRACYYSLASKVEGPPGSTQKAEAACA
# Procedure, shortened: as §1
# [5] = target: T5, PDGFRB (Homo sapiens, UniProt P09619); experiment: Kinase inhibition assay (33P transfer), PDGFRB; details: for IC50: read-out: PDGFRB-1
# T5 construct: Kinases are expressed as either kinase domains or full length constructs; made in house
# T5 sequence (P09619 33-1106, species assumed): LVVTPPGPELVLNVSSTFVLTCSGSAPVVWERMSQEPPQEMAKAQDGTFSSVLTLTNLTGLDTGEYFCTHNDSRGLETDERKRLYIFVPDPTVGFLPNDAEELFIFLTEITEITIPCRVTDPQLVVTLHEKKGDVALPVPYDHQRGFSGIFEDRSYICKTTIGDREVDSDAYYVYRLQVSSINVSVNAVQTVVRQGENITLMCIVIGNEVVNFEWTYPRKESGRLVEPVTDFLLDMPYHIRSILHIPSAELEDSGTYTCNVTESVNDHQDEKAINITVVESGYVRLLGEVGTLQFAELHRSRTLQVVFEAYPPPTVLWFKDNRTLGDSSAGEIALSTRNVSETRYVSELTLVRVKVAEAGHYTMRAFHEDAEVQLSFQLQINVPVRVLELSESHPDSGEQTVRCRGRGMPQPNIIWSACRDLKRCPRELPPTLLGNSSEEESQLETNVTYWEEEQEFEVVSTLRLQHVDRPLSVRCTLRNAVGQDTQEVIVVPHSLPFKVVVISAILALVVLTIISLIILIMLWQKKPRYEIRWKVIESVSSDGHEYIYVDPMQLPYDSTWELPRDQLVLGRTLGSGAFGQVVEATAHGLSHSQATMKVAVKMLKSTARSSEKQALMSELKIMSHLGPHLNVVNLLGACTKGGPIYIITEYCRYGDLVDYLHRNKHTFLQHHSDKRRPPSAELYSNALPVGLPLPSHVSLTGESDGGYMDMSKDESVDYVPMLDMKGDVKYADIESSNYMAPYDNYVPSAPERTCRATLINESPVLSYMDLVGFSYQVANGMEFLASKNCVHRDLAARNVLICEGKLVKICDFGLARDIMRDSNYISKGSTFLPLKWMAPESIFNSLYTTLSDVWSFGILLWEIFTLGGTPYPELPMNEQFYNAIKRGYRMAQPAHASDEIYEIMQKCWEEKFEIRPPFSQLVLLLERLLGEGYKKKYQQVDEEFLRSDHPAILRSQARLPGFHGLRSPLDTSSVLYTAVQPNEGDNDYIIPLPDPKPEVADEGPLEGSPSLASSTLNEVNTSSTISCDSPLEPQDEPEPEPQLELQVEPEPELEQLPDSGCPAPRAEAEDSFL
# [6] = target: T6, Itk (Homo sapiens, UniProt Q08881); experiment: Kinase inhibition assay (33P transfer), Itk; details: for IC50: read-out: Itk-1
# T6 construct: Kinases are expressed as either kinase domains or full length constructs; made in house
# T6 sequence (Q08881 1-620): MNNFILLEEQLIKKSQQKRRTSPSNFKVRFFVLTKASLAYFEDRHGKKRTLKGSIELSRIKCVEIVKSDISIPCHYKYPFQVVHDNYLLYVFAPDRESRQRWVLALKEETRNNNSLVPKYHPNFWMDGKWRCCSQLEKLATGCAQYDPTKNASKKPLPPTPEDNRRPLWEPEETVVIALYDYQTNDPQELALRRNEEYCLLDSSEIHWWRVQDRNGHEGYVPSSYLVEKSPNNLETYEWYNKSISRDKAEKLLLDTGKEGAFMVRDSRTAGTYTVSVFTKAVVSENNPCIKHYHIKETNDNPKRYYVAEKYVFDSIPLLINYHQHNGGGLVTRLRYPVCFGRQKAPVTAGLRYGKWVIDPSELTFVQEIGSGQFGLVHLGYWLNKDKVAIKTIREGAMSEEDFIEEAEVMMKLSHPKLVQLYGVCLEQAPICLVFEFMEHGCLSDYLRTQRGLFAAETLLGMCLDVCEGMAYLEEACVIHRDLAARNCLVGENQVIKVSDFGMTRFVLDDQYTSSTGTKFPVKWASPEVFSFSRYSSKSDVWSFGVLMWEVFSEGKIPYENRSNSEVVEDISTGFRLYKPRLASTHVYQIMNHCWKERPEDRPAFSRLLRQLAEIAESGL
# Procedure, shortened: (§2)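 GST/His-fusion kinases, E. coli or High Five expressed, affinity purified; 33P-ATP, plate-coated poly(Glu,Tyr) 4:1 or poly(Arg,Ser) 3:1; 0.5% H3PO4 wash, scintillant, LSC.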
# [7] = target: T7, AKT (Homo sapiens, UniProt Q9Y243); experiment: Kinase inhibition assay (33P transfer), AKT; details: Table 2, kinase inhibition class; for IC50: read-out: AKT3-1
# T7 construct: Kinases are expressed as either kinase domains or full length constructs; made in house
# T7 sequence (Q9Y243 whole entry, the tested form may be a part): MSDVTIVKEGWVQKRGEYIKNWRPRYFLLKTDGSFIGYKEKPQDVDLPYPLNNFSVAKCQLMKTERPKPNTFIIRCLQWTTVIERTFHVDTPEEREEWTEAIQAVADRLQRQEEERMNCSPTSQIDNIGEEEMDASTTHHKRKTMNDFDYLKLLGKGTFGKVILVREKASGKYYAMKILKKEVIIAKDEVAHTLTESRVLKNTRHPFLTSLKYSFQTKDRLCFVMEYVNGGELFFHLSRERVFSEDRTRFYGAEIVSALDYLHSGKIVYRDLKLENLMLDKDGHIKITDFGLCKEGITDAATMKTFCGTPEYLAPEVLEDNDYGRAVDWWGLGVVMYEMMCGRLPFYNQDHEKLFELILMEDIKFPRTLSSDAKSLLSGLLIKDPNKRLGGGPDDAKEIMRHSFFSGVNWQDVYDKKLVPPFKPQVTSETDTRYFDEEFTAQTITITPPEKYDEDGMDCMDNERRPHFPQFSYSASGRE
# Procedure, shortened: as §1
# [8] = target: T8, c-Met (Homo sapiens, UniProt P08581); experiment: Kinase inhibition assay (33P transfer), c-Met; details: Table 2, kinase inhibition class; for IC50: read-out: Met-1
# T8 construct: Kinases are expressed as either kinase domains or full length constructs; made in house
# T8 sequence (P08581 25-1390): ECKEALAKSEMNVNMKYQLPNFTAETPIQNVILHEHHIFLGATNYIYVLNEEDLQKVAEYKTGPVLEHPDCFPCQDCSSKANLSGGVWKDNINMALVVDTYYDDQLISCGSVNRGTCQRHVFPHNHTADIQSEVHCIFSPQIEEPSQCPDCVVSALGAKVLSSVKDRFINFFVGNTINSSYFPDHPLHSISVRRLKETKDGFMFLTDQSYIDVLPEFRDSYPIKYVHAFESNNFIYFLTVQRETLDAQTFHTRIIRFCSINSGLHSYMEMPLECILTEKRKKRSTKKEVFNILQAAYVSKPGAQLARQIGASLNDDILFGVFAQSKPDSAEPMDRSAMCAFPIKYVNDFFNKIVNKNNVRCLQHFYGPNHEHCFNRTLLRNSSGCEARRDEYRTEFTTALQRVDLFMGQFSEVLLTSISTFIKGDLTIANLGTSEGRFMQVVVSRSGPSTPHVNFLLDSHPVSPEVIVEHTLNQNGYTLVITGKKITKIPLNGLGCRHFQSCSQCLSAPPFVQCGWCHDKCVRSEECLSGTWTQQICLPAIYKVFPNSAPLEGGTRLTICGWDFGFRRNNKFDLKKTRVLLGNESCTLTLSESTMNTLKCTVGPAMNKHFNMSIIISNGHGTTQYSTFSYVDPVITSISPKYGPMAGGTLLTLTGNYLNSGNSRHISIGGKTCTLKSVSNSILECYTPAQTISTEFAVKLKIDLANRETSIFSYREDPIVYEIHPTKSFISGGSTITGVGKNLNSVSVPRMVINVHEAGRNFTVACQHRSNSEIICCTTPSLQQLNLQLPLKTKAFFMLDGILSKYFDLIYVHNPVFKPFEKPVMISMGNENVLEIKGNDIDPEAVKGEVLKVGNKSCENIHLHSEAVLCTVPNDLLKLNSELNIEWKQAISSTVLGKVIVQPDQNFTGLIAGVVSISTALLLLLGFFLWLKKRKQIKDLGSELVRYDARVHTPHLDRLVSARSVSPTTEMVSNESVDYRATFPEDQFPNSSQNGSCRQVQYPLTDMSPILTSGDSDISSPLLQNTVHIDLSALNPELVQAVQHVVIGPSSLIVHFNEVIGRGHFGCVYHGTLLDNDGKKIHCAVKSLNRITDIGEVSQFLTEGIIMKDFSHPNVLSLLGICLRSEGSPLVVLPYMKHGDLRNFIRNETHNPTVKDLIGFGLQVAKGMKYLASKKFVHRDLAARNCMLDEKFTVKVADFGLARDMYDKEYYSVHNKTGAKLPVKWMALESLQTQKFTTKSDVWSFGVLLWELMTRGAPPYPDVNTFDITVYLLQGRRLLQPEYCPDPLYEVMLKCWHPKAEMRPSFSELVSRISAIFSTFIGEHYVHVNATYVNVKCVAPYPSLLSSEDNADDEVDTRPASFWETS
# Procedure, shortened: as §2
# [9] = target: T9, EGFR (Homo sapiens, UniProt P00533); experiment: Kinase inhibition assay (33P transfer), EGFR; details: Table 2, kinase inhibition class; for IC50: read-out: EGFR-1
# T9 construct: Kinases are expressed as either kinase domains or full length constructs; made in house
# T9 sequence (P00533 25-1210, species assumed): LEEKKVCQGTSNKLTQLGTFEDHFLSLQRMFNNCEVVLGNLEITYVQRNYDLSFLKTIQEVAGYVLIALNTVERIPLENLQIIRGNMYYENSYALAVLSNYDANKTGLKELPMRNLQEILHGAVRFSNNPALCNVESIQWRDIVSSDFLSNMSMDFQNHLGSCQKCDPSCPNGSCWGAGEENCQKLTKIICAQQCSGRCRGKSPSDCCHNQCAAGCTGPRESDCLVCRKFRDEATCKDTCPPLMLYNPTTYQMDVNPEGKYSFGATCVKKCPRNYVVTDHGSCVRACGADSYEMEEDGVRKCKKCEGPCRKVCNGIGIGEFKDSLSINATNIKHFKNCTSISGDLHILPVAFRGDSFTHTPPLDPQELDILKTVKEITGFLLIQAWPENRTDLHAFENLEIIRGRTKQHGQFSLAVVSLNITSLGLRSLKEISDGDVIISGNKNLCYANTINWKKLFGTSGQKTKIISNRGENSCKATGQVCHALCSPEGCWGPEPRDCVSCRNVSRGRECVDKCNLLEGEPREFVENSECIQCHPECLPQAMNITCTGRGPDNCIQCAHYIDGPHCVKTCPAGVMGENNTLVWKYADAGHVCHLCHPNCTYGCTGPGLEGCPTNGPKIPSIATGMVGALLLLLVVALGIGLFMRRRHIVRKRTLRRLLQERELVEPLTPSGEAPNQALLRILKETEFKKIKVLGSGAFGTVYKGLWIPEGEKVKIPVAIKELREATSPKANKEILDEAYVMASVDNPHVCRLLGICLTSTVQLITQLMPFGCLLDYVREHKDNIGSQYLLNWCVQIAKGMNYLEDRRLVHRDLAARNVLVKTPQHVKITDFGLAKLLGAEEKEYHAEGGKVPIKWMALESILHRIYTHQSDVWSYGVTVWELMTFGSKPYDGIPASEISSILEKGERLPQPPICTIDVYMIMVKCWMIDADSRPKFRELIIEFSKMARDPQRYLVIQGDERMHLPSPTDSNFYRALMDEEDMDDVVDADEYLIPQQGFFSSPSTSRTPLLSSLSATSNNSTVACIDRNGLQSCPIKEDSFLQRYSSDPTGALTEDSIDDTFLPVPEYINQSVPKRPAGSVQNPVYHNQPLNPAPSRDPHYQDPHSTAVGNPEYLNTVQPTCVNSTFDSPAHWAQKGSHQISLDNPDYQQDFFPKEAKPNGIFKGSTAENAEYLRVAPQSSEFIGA
# Procedure, shortened: as §2
# [10] = target: T10, Tek (Homo sapiens, UniProt Q02763); experiment: Kinase inhibition assay (33P transfer), Tek; details: for IC50: read-out: Tek-1
# T10 construct: Kinases are expressed as either kinase domains or full length constructs; made in house
# Procedure, shortened: as §2
# [11] = target: T11, ErbB2 (Homo sapiens, UniProt P04626); experiment: Kinase inhibition assay (33P transfer), ErbB2; details: for IC50: read-out: ErbB2-2
# T11 construct: Kinases are expressed as either kinase domains or full length constructs; made in house
# Procedure, shortened: as §2
IC50 [1],IC50 [2],IC50 [3],IC50 [4],IC50 [5],IC50 [6],IC50 [7],IC50 [8],IC50 [9],IC50 [10],IC50 [11],SMILES,further results
6.69 to 8.6 µM,6.69 to 8.6 µM,6.69 to 8.6 µM,> 8.6 µM,> 8.6 µM,4.58 to 6.69 µM,> 8.6 µM,6.69 to 8.6 µM,> 8.6 µM,> 8.6 µM,4.58 to 6.69 µM,COc1cc(Nc2ncnc(-n3c(NCc4nc5ccccc5[nH]4)nc4ccccc43)n2)cc(OC)c1OC [Compound 954],–
< 0.863 µM,< 0.863 µM,0.863 to 5.18 µM,> 9.71 µM,0.863 to 5.18 µM,7.55 to 9.71 µM,> 9.71 µM,< 0.863 µM,0.863 to 5.18 µM,0.863 to 5.18 µM,0.863 to 5.18 µM,COc1cc(Nc2ncnc(Nc3cc(-c4ccc(C(=O)O)cc4)n[nH]3)n2)cc(OC)c1OC [Compound 1004],–
< 1.03 µM,1.03 to 6.2 µM,< 1.03 µM,> 11.6 µM,1.03 to 6.2 µM,1.03 to 6.2 µM,> 11.6 µM,< 1.03 µM,< 1.03 µM,1.03 to 6.2 µM,1.03 to 6.2 µM,O=C(O)Cc1cccc(Nc2ncnc(Nc3cc(-c4ccccc4)n[nH]3)n2)c1 [Compound 981],–
> 9.46 µM,0.841 to 5.05 µM,< 0.841 µM,> 9.46 µM,0.841 to 5.05 µM,> 9.46 µM,> 9.46 µM,> 9.46 µM,> 9.46 µM,> 9.46 µM,> 9.46 µM,COc1ccc(CNc2ncccc2-c2ncnc(Nc3cc(OC)c(OC)c(OC)c3)n2)nc1 [Compound 1085],–
1.01 to 6.07 µM,< 1.01 µM,1.01 to 6.07 µM,> 11.4 µM,< 1.01 µM,> 11.4 µM,> 11.4 µM,> 11.4 µM,1.01 to 6.07 µM,8.85 to 11.4 µM,1.01 to 6.07 µM,COc1cc(Nc2ncnc(Nc3cccc(C(C)=O)c3)n2)cc(OC)c1OC [Compound 697],–
< 0.991 µM,0.991 to 5.95 µM,0.991 to 5.95 µM,> 11.2 µM,> 11.2 µM,5.95 to 8.68 µM,> 11.2 µM,< 0.991 µM,0.991 to 5.95 µM,> 11.2 µM,0.991 to 5.95 µM,COc1cc(C)c(Nc2ncnc(Nc3cc(-c4ccccc4)n[nH]3)n2)cc1OC [Compound 978],–

# Further lines, the molecule ahead of its results:
SMILES,IC50 [1],IC50 [2],IC50 [3],IC50 [4],IC50 [5],IC50 [6],IC50 [7],IC50 [8],IC50 [9],IC50 [10],IC50 [11],further results
Nc1nc2ccccc2n1-c1ncnc(Nc2ccccc2)n1 [Compound 651],< 1.32 µM,1.32 to 7.91 µM,< 1.32 µM,> 14.8 µM,1.32 to 7.91 µM,1.32 to 7.91 µM,> 14.8 µM,1.32 to 7.91 µM,> 14.8 µM,7.91 to 11.5 µM,–,–
CCN(CC)CCOc1cc(Nc2ncnc(-n3c(N)nc4ccccc43)n2)ccc1OC [Compound 649],< 0.892 µM,0.892 to 5.35 µM,0.892 to 5.35 µM,> 10 µM,0.892 to 5.35 µM,7.8 to 10 µM,> 10 µM,> 10 µM,> 10 µM,5.35 to 7.8 µM,–,–
Nc1nc2ccccc2n1-c1ncnc(Nc2cccnc2)n1 [Compound 658],< 1.31 µM,> 14.8 µM,1.31 to 7.89 µM,> 14.8 µM,> 14.8 µM,1.31 to 7.89 µM,> 14.8 µM,> 14.8 µM,7.89 to 11.5 µM,> 14.8 µM,> 14.8 µM,–
COC(=O)c1ccc(-c2cc(Nc3ncnc(Nc4cc(OC)c(OC)c(OC)c4)n3)[nH]n2)cc1 [Compound 523],< 0.838 µM,< 0.838 µM,> 9.42 µM,> 9.42 µM,> 9.42 µM,7.33 to 9.42 µM,> 9.42 µM,< 0.838 µM,0.838 to 5.03 µM,> 9.42 µM,7.33 to 9.42 µM,–
COc1cc(Nc2ncnc(Nc3cccc(C(F)(F)F)c3)n2)cc(OC)c1OC [Compound 614],< 0.949 µM,0.949 to 5.7 µM,8.31 to 10.7 µM,> 10.7 µM,0.949 to 5.7 µM,> 10.7 µM,> 10.7 µM,> 10.7 µM,< 0.949 µM,8.31 to 10.7 µM,0.949 to 5.7 µM,–
COc1cccc(Nc2ncnc(-n3c(N)nc4ccccc43)n2)c1 [Compound 654],< 1.2 µM,1.2 to 7.2 µM,< 1.2 µM,> 13.5 µM,1.2 to 7.2 µM,1.2 to 7.2 µM,> 13.5 µM,7.2 to 10.5 µM,7.2 to 10.5 µM,1.2 to 7.2 µM,1.2 to 7.2 µM,–
COc1cc(Nc2ncnc(Nc3ccc(O)c4ncccc34)n2)cc(OC)c1OC [Compound 699],–,–,–,–,–,–,–,–,–,–,–,IGFR-1 [1]: B (B>0.4 and <2.4 ug/mL); Lck-1 [2]: A (A<0.4 ug/mL); KDR-1 [3]: B (B>0.4 and <2.4 ug/mL); Zap-1 [4]: E (E>4.5 ug/mL); PDGFRB-1 [5]: A (A<0.4 ug/mL); Itk-1 [6]: B (B>0.4 and <2.4 ug/mL); ErbB2-2 [11]: A (A<0.4 ug/mL); AKT3-1 [7]: E (E>4.5 ug/mL); Met-1 [8]: E (E>4.5 ug/mL); EGFR-1 [9]: B (B>0.4 and <2.4 ug/mL); Tek-1 [10]: D (D>3.5 and <4.5 ug/mL)
COc1cc(Nc2ncnc(-n3c(N)nc4ccccc43)n2)ccc1OCCN1CCOCC1 [Compound 650],< 0.865 µM,0.865 to 5.19 µM,< 0.865 µM,> 9.73 µM,0.865 to 5.19 µM,> 9.73 µM,> 9.73 µM,7.57 to 9.73 µM,> 9.73 µM,7.57 to 9.73 µM,–,–
COc1cc(Nc2ncnc(-n3ncc(-c4ccccc4)c3N)n2)cc(OC)c1OC [Compound 522],0.954 to 5.72 µM,0.954 to 5.72 µM,5.72 to 8.34 µM,> 10.7 µM,5.72 to 8.34 µM,0.954 to 5.72 µM,> 10.7 µM,5.72 to 8.34 µM,5.72 to 8.34 µM,8.34 to 10.7 µM,8.34 to 10.7 µM,–
COc1cc(Nc2ncnc(-n3c(C)nc4ccccc43)n2)cc(OC)c1OC [Compound 691],< 1.02 µM,1.02 to 6.12 µM,< 1.02 µM,> 11.5 µM,< 1.02 µM,6.12 to 8.92 µM,> 11.5 µM,1.02 to 6.12 µM,6.12 to 8.92 µM,> 11.5 µM,> 11.5 µM,–
Nc1nc2ccccc2n1-c1ncnc(Nc2cccc(Cl)c2)n1 [Compound 474],1.18 to 7.11 µM,1.18 to 7.11 µM,1.18 to 7.11 µM,7.11 to 10.4 µM,1.18 to 7.11 µM,1.18 to 7.11 µM,1.18 to 7.11 µM,1.18 to 7.11 µM,1.18 to 7.11 µM,1.18 to 7.11 µM,1.18 to 7.11 µM,–
COc1cc(Nc2ncnc(Nc3cc(OC)c(OC)c(OC)c3)n2)ccc1OCCN1CCOCC1 [Compound 601],> 8.78 µM,0.78 to 4.68 µM,4.68 to 6.83 µM,> 8.78 µM,0.78 to 4.68 µM,> 8.78 µM,> 8.78 µM,> 8.78 µM,0.78 to 4.68 µM,–,0.78 to 4.68 µM,–

# From patent publication US7074789B2, “Kinase inhibitors” (Amgen Inc., priority 1999, dated 2006)
